Assays:
[1] = test system: EBC-1 cells; experiment: EBC-1 cell proliferation, CellTiter-Glo Luminescent Cell Viability Assay; assay type: cell-based; settings: Homo sapiens, 72 h incubation, read-out: IC50 (nM) against EBC-1 cells
Protocol: Test Example 3: Inhibitory Activity of Compounds disclosed herein against EBC-1 Cells
Test method: the inhibitory activity of the compounds against EBC-1 cell proliferation was evaluated using CellTiter-Glo® Luminescent Cell Viability Assay Kit (Promega).
Test procedures: when thawing EBC-1 cells, the cell cryopreservation tube was shaken rapidly in a water bath at 37° C. to thaw the cells in 1 min. The cell suspension after thawing was mixed with RPMI1640 culture medium containing 10% FBS and centrifuged for 5 min at 1000 rpm, and the supernatant was discarded. The cell pellet was suspended in 5 mL of complete culture medium. The suspension was placed in a cell culture flask with a bottom area of 25 cm^2, and cultured in a cell incubator at 37° C./95% humidity/5% CO2. Cell passage was performed when cell confluence reached about 80%. When the cells were passaged, the original cell suspension was directly made uniform by pipetting. 1/6 of the cell suspension was kept, added with 5 mL of new complete culture medium and then made uniform by pipetting. The cell culture flask was then placed in a cell incubator for further culturing. Cell plating was performed when the cell confluence reached about 80% again. With reference to the method for cell passage, 1/6 cell suspension was kept for further culturing when the cells were plated, and the remaining 5/6 of cell suspension was placed in a 15 mL centrifuge tube. Cell viability was detected by trypan blue exclusion using an IC1000 cell counter (Countstar) to ensure that cell viability was above 90%. Cell suspension at a density of 3.33×10^4 viable cells/mL was prepared using complete culture medium, and 90 μL of the cell suspension was added into 96-well cell culture plates, so that the cell density in the cell culture plates (day 0 plate and test compound plate) was 3000 viable cells/well. A control group that contains no cell or compound but only complete culture medium and a control group that contains no compound but cells were set. The cell plates were incubated overnight in a cell incubator. […] 10 μL of the above solution was added into a corresponding cell culture plate to ensure that the initial concentration of the compound was 10 μM, the dilution factor of adjacent concentration was 3.16, and the DMSO content in the cell culture plate was 0.1%. The cell plates were then incubated in the cell incubator for 72 h. During detection, CellTiter-Glo reagent (namely CellTiter-Glo® […] cell viability test reagent, Promega, Cat. No. G7572, Lot. No. 0000310975) was melted, and the cell plate was equilibrated at room temperature for 30 min. The cell plate was added with the CellTiter-Glo reagent at 100 μL per well, and then shaken on a QB-9001 microporous quick shaker (Kylin-Bell) for 5 min to fully lyse the cells. The cell plate was left to stand at room temperature for 20 min to stabilize luminescence signals, and the luminescence value of each well was scanned by a Spectramax M3 multi-functional microplate reader (Molecular Devices) at full wavelength.
Test samples: example compounds of the present invention and cabozantinib (positive control compound).
(§1) Data analysis: cell viability was calculated for compounds at various concentrations using the following formula:
(§2) Cell viability(%)=(Lumtest compound−Lumculture solution control)/(Lumcell control−Lumculture solution control)×100%,
(§3) where Lum refers to the luminescence value of each well of the test compound plate read by the multi-functional microplate reader.
(§4) The data were analyzed using GraphPad Prism 7.0 software, fitted with nonlinear S-curve regression to give dose-response curves, and IC50 values were calculated therefrom.

[2] = molecular target: T1, Ba/F3 Axl cells (Homo sapiens, UniProt P30530); experiment: Ba/F3 Axl cell proliferation, CellTiter-Glo Luminescent Cell Viability Assay; assay type: cell-based; settings: 100 ng/mL rhGas6, 72 h incubation, read-out: IC50 (nM) against Ba/F3 Axl cells
T1 sequence (P30530 1-894): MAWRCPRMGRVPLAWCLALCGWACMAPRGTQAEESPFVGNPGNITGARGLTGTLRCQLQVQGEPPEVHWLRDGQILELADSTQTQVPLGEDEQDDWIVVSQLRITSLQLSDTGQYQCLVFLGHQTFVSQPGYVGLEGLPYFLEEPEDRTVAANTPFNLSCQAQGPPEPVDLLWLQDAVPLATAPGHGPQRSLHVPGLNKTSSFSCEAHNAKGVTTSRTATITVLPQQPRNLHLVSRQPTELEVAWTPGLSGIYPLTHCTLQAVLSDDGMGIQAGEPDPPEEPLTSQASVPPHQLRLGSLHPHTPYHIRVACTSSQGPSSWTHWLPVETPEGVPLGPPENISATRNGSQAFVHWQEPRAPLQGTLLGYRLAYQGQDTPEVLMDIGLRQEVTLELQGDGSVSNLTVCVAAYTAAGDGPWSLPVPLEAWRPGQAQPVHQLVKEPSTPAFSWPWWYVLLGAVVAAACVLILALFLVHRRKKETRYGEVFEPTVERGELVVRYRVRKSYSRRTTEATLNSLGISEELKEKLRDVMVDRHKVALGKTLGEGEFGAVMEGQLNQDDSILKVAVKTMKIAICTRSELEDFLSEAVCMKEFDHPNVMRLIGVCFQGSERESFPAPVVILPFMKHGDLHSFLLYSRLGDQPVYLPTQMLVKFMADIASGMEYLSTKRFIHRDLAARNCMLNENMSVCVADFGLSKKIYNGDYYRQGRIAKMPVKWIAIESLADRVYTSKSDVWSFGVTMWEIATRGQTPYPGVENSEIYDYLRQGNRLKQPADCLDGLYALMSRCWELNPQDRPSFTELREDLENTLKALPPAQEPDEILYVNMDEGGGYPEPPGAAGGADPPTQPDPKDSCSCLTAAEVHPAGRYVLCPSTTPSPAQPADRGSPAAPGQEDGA
Protocol: Test method: the inhibitory activity of the compounds against Ba/F3 Axl cell proliferation was evaluated using CellTiter-Glo® Luminescent Cell Viability Assay Kit (Promega).
Test procedures: when thawing Ba/F3 Axl cells, the cell cryopreservation tube was shaken rapidly in a water bath at 37° C. to thaw the cells in 1 min. The cell suspension after thawing was mixed with RPMI1640 culture medium containing 10% FBS and centrifuged for 5 min at 1000 rpm, and the supernatant was discarded. The cell pellet was suspended in 5 mL of complete culture medium. […] Cell passage was performed at a cell density of 2×10^6 viable cells/mL. When the cells were passaged, the original cell suspension was directly made uniform by pipetting. 1/10 (namely 0.5 mL) of the cell suspension was kept, added with 4.5 mL of new complete culture medium and then made uniform by pipetting. The cell culture flask was then placed in a cell incubator for further culturing. Cell plating was performed when the cell confluence reached 2×10^6 viable cells/mL again. With reference to the method for cell passage, 1/10 (namely 0.5 mL) of the cell suspension was kept for further culturing when the cells were plated, and the remaining cell suspension was placed in a 15 mL centrifuge tube. The supernatant was discarded after centrifugation, and 5 mL of complete culture medium was used to resuspend the cells. […] A control group that contains no cell or compound but only complete culture medium and a control group that contains no compound but cells were set. The cell plates were incubated overnight in a cell incubator. […] The cell plates were then incubated in the cell incubator for 72 h. […] The cell plate was left to stand at room temperature for 20 min to stabilize luminescence signals, and the luminescence value of each well was scanned by a Spectramax M3 multi-functional microplate reader (Molecular Devices) at full wavelength.
Test samples: example compounds of the present invention and bemcentinib (positive control compound).
as §1, §2, §3, §4

SMILES	IC50 [1]	GI50 [2]
COc1cc2nccc(Oc3ccc(NC(=O)c4cn(C(C)C)c(C#N)c(-c5ccc(F)cc5)c4=O)cc3F)c2cc1OC [Example 24, 6-cyano-N-(4-((6,7-dimethoxyquinolin-4-yl)oxy)-3-fluoro-phenyl)-5-(4-fluorophenyl)-1-isopropyl-4-oxo-1,4-dihydropyridine-3-carboxamide]	45 nM	0.36 nM
CCn1cc(-c2cnc(N)c(-c3ccc(NC(=O)c4cn(C(C)C)c(C#N)c(-c5ccc(F)cc5)c4=O)cc3F)c2)cn1 [Example 3, N-(4-(2-amino-5-(1-ethyl-1H-pyrazol-4-yl)pyridin-3-yl)-3-fluoro-phenyl)-6-cyano-5-(4-fluorophenyl)-1-isopropyl-4-oxo-1,4-dihydropyridine-3-carboxamide]	22 nM	0.29 nM
CCn1cc(-c2cnc(N)c(-c3ccc(NC(=O)c4cn(C5CC5)c(C#N)c(-c5ccc(F)cc5)c4=O)cc3F)c2)cn1 [Example 10, N-(4-(2-amino-5-(1-ethyl-1H-pyrazol-4-yl)pyridin-3-yl)-3-fluorophenyl)-6-cyano-5-(4-fluorophenyl)-1-cyclopropyl-4-oxo-1,4-dihydropyridine-3-carboxamide]	208 nM	–
CC(C)n1cc(C(=O)Nc2ccc(-c3cc(-c4cnn(C)c4)cnc3N)c(F)c2)c(=O)c(-c2ccc(F)cc2)c1C#N [Example 4, N-(4-(2-amino-5-(1-methyl-1H-pyrazol-4-yl)pyridin-3-yl)-3-fluorophenyl)-6-cyano-5-(4-fluorophenyl)-1-isopropyl-4-oxo-1,4-dihydropyridine-3-carboxamide]	30 nM	0.57 nM
CC(C)n1cc(C(=O)Nc2ccc(-c3cc(-c4cnn(C5CCNCC5)c4)cnc3N)c(F)c2)c(=O)c(-c2ccc(F)cc2)c1C#N [Example 2, N-(4-(2-amino-5-(1-(piperidin-4-yl)-1H-pyrazol-4-yl)pyridin-3-yl)-3-fluorophenyl)-6-cyano-5-(4-fluorophenyl)-1-isopropyl-4-oxo-1,4-dihydropyridine-3-carboxamide]	24 nM	–
CC(C)n1cc(C(=O)Nc2cc(F)c(-c3cc(-c4cnn(C)c4)cnc3N)cc2F)c(=O)c(-c2ccc(F)cc2)c1C#N [Example 6, N-(4-(2-amino-5-(1-methyl-1H-pyrazol-4-yl)pyridin-3-yl)-2,5-difluorophenyl)-6-cyano-5-(4-fluorophenyl)-1-isopropyl-4-oxo-1,4-dihydropyridine-3-carboxamide]	13 nM	0.49 nM
CCn1cc(-c2cnc(N)c(-c3cc(F)c(NC(=O)c4cn(C(C)C)c(C#N)c(-c5ccc(F)cc5)c4=O)cc3F)c2)cn1 [Example 33, N-(4-(2-amino-5-(1-ethyl-1H-pyrazol-4-yl)pyridin-3-yl)-2,5-difluorophenyl)-6-cyano-5-(4-fluorophenyl)-1-isopropyl-4-oxo-1,4-dihydropyridine-3-carboxamide]	–	0.23 nM
[2H]C([2H])([2H])n1cc(-c2cnc(N)c(-c3cc(F)c(NC(=O)c4cn(C(C)C)c(C#N)c(-c5ccc(F)cc5)c4=O)cc3F)c2)cn1 [Example 34, N-(4-(2-amino-5-(1-methyl-d3-1H-pyrazol-4-yl)pyridin-3-yl)-2,5-difluorophenyl)-6-cyano-5-(4-fluorophenyl)-1-isopropyl-4-oxo-1,4-dihydropyridine-3-carboxamide]	–	0.28 nM
CC(C)n1cc(C(=O)Nc2ccc(-c3cc(-c4cnn(C5CCN(C)CC5)c4)cnc3N)c(F)c2)c(=O)c(-c2ccc(F)cc2)c1C#N [Example 7, N-(4-(2-amino-5-(1-(1-methylpiperidin-4-yl)-1H-pyrazol-4-yl)-pyridin-3-yl)-3-fluorophenyl)-6-cyano-5-(4-fluorophenyl)-1-isopropyl-4-oxo-1,4-dihydro-pyridine-3-carboxamide]	27 nM	–
COc1cc2nccc(Oc3ccc(NC(=O)c4cn(C)c(C#N)c(-c5ccc(F)cc5)c4=O)cc3F)c2cc1OC [Example 21, 6-cyano-N-(4-((6,7-dimethoxyquinolin-4-yl)oxy)-3-fluoro-phenyl)-5-(4-fluorophenyl)-1-methyl-4-oxo-1,4-dihydropyridine-3-carboxamide]	109 nM	0.29 nM

— patent publication US20210355107A1, “MULTI-SUBSTITUTED PYRIDONE DERIVATIVES AND MEDICAL USE THEREOF” (Beijing Yuezhikangtai Biomedicines Co., Ltd., priority 2018, published 2021)
